Tests used:
Experiment in all cases: Kinase profiling in a biochemical assay panel (mobility shift assays and ELISA), %-inhibition at 1 μM; selectivity entropy
[1] = molecular target: panel of more than 300 wild-type and mutant kinases (313 kinase panel) (Homo sapiens, UniProt P08069); conditions: kinase IGF1R; compound at 1 μM
[2] = molecular target: panel of more than 300 wild-type and mutant kinases (313 kinase panel) (Homo sapiens, UniProt P16234, T674I)
[3] = molecular target: T1, panel of more than 300 wild-type and mutant kinases (313 kinase panel) (Homo sapiens, UniProt P52333); conditions: kinase JAK3; compound at 1 μM
T1 sequence (P52333 1-1124): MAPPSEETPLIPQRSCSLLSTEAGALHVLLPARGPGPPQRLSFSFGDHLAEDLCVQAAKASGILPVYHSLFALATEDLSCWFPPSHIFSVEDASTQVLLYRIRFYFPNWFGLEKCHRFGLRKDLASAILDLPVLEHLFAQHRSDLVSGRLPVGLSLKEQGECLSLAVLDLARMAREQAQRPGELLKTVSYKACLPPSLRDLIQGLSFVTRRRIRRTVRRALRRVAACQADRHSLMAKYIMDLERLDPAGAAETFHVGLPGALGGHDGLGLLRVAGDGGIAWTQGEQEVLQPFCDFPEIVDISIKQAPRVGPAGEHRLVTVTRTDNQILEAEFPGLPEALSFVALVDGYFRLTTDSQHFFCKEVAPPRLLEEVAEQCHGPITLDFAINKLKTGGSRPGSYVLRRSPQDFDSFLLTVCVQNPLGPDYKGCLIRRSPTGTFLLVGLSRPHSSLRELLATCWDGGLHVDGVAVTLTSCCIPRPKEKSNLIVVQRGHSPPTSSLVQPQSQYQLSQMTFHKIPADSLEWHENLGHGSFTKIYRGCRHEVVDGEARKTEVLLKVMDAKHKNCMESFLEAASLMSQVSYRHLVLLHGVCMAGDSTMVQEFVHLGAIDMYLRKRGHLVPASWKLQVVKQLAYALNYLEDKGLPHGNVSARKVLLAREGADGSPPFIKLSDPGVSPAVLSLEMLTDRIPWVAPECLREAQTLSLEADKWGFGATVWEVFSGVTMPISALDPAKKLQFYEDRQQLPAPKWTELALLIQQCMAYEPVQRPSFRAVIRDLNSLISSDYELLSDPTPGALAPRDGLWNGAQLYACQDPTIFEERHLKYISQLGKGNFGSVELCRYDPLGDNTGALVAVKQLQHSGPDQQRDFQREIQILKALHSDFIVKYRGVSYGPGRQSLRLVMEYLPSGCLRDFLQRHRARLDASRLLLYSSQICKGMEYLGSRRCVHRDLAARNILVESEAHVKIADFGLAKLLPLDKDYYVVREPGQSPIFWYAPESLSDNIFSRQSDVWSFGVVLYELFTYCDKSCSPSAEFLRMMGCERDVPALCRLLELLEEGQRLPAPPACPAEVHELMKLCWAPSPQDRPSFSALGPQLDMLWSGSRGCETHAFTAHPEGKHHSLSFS

[4] = molecular target: panel of more than 300 wild-type and mutant kinases (313 kinase panel) (Homo sapiens, UniProt P68400); conditions: kinase CK2α1/β; 1 μM compound
[5] = molecular target: panel of more than 300 wild-type and mutant kinases (313 kinase panel) (Homo sapiens, UniProt Q13464)
[6] = molecular target: T2, panel of more than 300 wild-type and mutant kinases (313 kinase panel) (Homo sapiens, UniProt Q9UL54); conditions: kinase TAOK2; 1 μM
T2 sequence (Q9UL54 1-1235): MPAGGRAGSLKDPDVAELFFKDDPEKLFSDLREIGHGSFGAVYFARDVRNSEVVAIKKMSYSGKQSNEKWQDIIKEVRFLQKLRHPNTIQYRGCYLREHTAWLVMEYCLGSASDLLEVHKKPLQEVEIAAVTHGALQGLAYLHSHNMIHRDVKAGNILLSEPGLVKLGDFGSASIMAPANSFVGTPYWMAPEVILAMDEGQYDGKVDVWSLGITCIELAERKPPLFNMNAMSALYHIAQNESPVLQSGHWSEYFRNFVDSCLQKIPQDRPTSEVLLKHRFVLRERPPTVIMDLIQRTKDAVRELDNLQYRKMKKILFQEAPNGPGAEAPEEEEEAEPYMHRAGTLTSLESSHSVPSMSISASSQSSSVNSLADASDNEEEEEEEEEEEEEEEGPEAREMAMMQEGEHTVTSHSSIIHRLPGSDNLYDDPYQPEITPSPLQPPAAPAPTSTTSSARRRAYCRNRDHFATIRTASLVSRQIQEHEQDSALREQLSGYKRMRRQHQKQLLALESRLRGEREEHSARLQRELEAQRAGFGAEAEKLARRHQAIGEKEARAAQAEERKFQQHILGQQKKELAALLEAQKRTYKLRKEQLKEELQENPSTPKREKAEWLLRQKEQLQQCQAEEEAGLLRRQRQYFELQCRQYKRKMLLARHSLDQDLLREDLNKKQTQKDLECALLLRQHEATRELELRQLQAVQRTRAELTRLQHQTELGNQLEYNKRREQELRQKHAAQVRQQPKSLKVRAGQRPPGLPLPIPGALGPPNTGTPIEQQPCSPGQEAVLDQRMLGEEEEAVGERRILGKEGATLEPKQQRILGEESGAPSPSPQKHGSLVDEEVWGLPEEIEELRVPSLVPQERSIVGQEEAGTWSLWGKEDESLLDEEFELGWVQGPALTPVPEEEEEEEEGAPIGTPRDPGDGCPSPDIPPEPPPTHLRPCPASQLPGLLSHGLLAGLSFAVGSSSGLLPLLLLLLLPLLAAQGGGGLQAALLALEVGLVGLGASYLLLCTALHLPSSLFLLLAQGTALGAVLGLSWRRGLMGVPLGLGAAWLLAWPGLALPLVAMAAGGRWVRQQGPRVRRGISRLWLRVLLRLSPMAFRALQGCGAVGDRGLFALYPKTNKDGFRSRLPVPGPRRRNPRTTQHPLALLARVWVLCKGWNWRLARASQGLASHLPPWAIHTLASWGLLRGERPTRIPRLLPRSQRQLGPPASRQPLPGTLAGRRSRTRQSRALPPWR

panel of more than 300 wild-type and mutant kinases (313 kinase panel) (Homo sapiens, UniProt P16234, T674I), sequence (P16234 24-1089 T674I): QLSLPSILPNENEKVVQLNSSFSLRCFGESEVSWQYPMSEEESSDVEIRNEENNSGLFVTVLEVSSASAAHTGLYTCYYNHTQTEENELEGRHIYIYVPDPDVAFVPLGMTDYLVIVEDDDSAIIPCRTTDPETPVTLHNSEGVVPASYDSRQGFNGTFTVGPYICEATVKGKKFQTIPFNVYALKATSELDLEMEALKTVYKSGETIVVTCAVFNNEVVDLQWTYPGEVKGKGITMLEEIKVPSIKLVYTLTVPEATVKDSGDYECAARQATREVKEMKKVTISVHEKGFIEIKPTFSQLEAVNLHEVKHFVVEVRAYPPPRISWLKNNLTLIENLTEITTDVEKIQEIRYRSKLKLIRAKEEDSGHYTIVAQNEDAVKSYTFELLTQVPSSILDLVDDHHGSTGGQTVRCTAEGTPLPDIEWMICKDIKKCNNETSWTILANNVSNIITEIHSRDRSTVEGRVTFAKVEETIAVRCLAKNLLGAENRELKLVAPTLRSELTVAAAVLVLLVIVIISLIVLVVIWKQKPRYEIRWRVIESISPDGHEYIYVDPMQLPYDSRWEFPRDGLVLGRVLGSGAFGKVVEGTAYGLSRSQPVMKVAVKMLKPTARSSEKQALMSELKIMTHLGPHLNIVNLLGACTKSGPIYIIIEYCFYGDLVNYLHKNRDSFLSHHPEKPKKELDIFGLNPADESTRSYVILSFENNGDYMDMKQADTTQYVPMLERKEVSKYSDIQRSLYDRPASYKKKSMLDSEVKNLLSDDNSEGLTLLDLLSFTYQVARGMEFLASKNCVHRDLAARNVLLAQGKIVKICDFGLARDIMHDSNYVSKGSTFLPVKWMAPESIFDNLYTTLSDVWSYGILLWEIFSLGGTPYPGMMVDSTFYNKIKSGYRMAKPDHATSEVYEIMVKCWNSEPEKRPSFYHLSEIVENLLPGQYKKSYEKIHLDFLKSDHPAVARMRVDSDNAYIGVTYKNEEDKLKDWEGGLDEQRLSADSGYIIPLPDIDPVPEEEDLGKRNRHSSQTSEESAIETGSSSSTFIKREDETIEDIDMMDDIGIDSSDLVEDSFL

## CC(=O)Nc1cccc(-n2c(=O)n(C3CC3)c(=O)c3c(Nc4ccc(I)cc4F)n(C)c(=O)c(C)c32)c1 [trametinib]
[1]
  %-inhibition of IGF1R: -10%
[2]; kinase PDGFRα(T674I), 1 μM
  %-inhibition of PDGFRα(T674I): -0.248%
[3]
  %-inhibition of JAK3: 6%
[4]
  %-inhibition, CK2α1/β: -3.4%
[5]; kinase ROCK1, 1 μM
  %-inhibition of ROCK1: 3.21%
[6]
  %-inhibition of TAOK2: -2.59%

## CS(=O)(=O)CCNCc1ccc(-c2ccc3ncnc(Nc4ccc(OCc5cccc(F)c5)c(Cl)c4)c3c2)o1 [lapatinib]
[1]
  %-inhibition of IGF1R: 3.73%
[2]; 1 µM
  %-inhibition of PDGFRα(T674I): 18%
[3]
  %-inhibition of JAK3: -6%
[4]
  %-inhibition, CK2α1/β: -1.7%
[5]; kinase ROCK1, 1 μM
  %-inhibition of ROCK1: -2.62%
[6]
  %-inhibition of TAOK2: -5.44%

## COc1cc2c(Nc3ccc(Br)cc3F)ncnc2cc1OCC1CCN(C)CC1 [vandetanib]
[1]
  %-inhibition of IGF1R: -1.72%
[2]; kinase PDGFRα(T674I), 1 μM
  %-inhibition of PDGFRα(T674I): 91%
[3]
  %-inhibition of JAK3: 2.34%
[4]
  %-inhibition, CK2α1/β: -7%
[5]; kinase ROCK1, 1 μM
  %-inhibition of ROCK1: -0.226%
[6]
  %-inhibition of TAOK2: -3.51%

## COc1cc2nccc(Oc3ccc(NC(=O)C4(C(=O)Nc5ccc(F)cc5)CC4)cc3)c2cc1OC [cabozantinib]
[1]
  %-inhibition of IGF1R: 11%
[2]; kinase PDGFRα(T674I), 1 μM
  %-inhibition of PDGFRα(T674I): 97%
[3]
  %-inhibition of JAK3: 2.34%
[4]
  %-inhibition, CK2α1/β: -2.76%
[5]; kinase ROCK1, 1 μM
  %-inhibition of ROCK1: 1.28%
[6]
  %-inhibition of TAOK2: 6%

## Cc1cn(-c2cc(NC(=O)c3ccc(C)c(Nc4nccc(-c5cccnc5)n4)c3)cc(C(F)(F)F)c2)cn1 [nilotinib]
[1]
  %-inhibition of IGF1R: -11%
[2]; 1 µM
  %-inhibition of PDGFRα(T674I): 45%
[3]
  %-inhibition of JAK3: 2.15%
[4]
  %-inhibition, CK2α1/β: 3.23%
[5]; 1 µM
  %-inhibition of ROCK1: -17%
[6]
  %-inhibition of TAOK2: 7.47%
